Entries after “also recorded” stand apart in the source; their conditions may differ. Square brackets hold non-standard residues; d marks the D form. Ends that are not written are not given here. Peptide text beside a SMILES is read from it.

The results in this text go back to patent US7060277B2 (priority 1996, dated 2006).

The conditions of data set [1]: mouse, in vivo.
For data set [2] the following is noted: pig.
In data set [3] the test system is SEB-mediated induction of IL-2, IFN-γ and/or TNF-β gene expression in PBMC. It is filed as cell-based, human.
Data set [4] has as its system expression of IL-2 and IFN-γ genes in PBMC. The class given is cell-based, human.
Data set [5] concerns induction of IL-2 / IFN-γ mRNA by TSST-1 in PBMC. The class given is cell-based, human.
In a further data set the test system is SEB-induced lethal shock. Also noted: species or system BALB/c mice. Particulars: mouse, in vivo.

For `CC(C)C[C@H](NC(=O)[C@H](CCC(=O)O)NC(=O)[C@H](CCC(N)=O)NC(=O)[C@@H](NC(=O)[C@@H](NC(=O)[C@H](C)NC(=O)[C@H](CCCCN)NC(=O)[C@H](CCCCN)NC(=O)[C@H](CCCCN)NC(=O)[C@H](CC(N)=O)NC(=O)[C@H](Cc1ccc(O)cc1)NC(=O)[C@@H](C)N)[C@@H](C)O)C(C)C)C(=O)N[C@@H](CC(=O)O)C(=O)N[C@H](C)C(=O)O` [p12A, daY N K K K A T V Q E L Dda] (H-[dA]YNKKKATVQELD[dA]-OH), in data set [1], the “side effects in peptide-treated, SEB-challenged mice” value was “No side effects”; the “viability and side effects of mice exposed to peptide alone” value was “stayed fully viable and showed no detectable side effects”.
Consider `CC(C)C[C@H](NC(=O)[C@H](CCC(=O)O)NC(=O)[C@H](CCC(N)=O)NC(=O)[C@@H](NC(=O)[C@@H](NC(=O)[C@H](C)NC(=O)[C@H](CCCCN)NC(=O)[C@H](CCCCN)NC(=O)[C@H](CCCCN)NC(=O)[C@H](CC(N)=O)NC(=O)[C@H](Cc1ccc(O)cc1)NC(=O)[C@H](CCC(N)=O)NC(=O)[C@@H](NC(=O)[C@@H](C)N)C(C)C)[C@@H](C)O)C(C)C)C(=O)N[C@@H](CC(=O)O)C(=O)N[C@H](C)C(=O)O` [p14A, daV Q Y N K K K A T V Q E L Dda] (H-[dA]VQYNKKKATVQELD[dA]-OH), for which the “toxin agonist activity in vivo” value in data set [2] is reported as “without any detectable toxin agonist activity in vivo”. In data set [2] (in vivo), the “symptoms of incapacitation in pigs that received peptide alone” value is “failed to develop any symptoms of incapacitation”. Moreover, the “viability and side effects of mice exposed to peptide alone” value in data set [1] was “stayed fully viable and showed no detectable side effects”.
For “C Y N K K K A T V Q E L D C [Cys-p12(150–161)]”, in data set [3], the “SEB antagonist activity, IL-2 and IFN-γ mRNA at 8 hrs” value is reported as “significant SEB antagonist activity, even upon tenfold dilution”; the “SEB antagonist activity, overall comparison” value is “more powerful as antagonist than p12(150–161)”.
With “IDQFLYFDLIYSIKDTKLGNY (IDQFLYFDLIYSIKDTKLGNY) [pSEB(41–61)]”, in data set [4], the “SEB agonist activity, induction of mRNA for IL-2 or IFN-γ by RNase protection” value is “failed to show SEB agonist activity”. For the same compound, in data set [3], the “block of induction of IL-2 and IFN-γ mRNA by SEB” value was “failed to block induction of IL-2 and IFN-γ mRNA by SEB”.
In the case of “K K K A T V Q E L D (KKKATVQELD) [p10(152–161)]”, in data set [3], the “antagonist activity, SEB-mediated IL-2 mRNA induction” value is “pronounced antagonist activity; also recorded: lower, yet still significant, antagonist activity” and the “inhibition of IL-2 gene induction by SEB” value is listed as “up to 8 fold”.
Turning to “K K K V T A Q E L D (KKKVTAQELD) [pSEB(152–161)]”, the “antagonist activity, SEB-mediated IL-2 mRNA induction” value in data set [3] is “pronounced antagonist activity”.
“TNKKKVTAQELD [pSEB(150–161), T N K K K V T A Q E L D]”: the “viability of PBMC cultured with peptide” value in the data set with PBMC was “undiminished viability”.
With “YNKKKATVQELDYNKKKATVQELI (YNKKKATVQELDYNKKKATVQELD; listed as Staphylococcus aureus) [Dimer]”, in data set [5], the “inhibition of induction of IL-2 mRNA by TSST-1” value is on record as “inhibited”. In data set [3], the “SEB antagonist activity, overall comparison” value is on record as “more powerful as antagonist than p12(150–161)”; the “inhibition of IFN-γ mRNA induction by SEB, peptide diluted 100-fold” value was “detectable inhibition”; the “inhibition of SEB-induced IL-2 and IFN-γ gene expression” value is on record as “effective as antagonist”; the “inhibition of induction of IL-2 and IFN-γ mRNA by SEB” value was “strongly inhibitory”. The “inhibition of induction of IL-2 mRNA by SEB” value in data set [3] is given as “inhibited”.
“YNKKKATVQELDYNKKKATVQELIYNKKKATVQELD (YNKKKATVQELDYNKKKATVQELIYNKKKATVQELD) [Trimer]”: the “inhibition of induction of IL-2 and IFN-γ mRNA by SEB” value in data set [3] is on record as “strongly inhibitory”.
As for “YNKKKATVQELD [p12(150–161), Y N K K K A T V Q E L D]”, the “viability of PBMC cultured with peptide” value in the data set on PBMC is recorded as “undiminished viability”.
Take lpV Q Y N K K K A T V Q E L D [p14A-LP]: in the data set on SEB-induced lethal shock, the “immunized mice that survived lethal SEB challenge” value was “Ten out of 11” and the “immunized survivors that survived rechallenge with a double dose of SEB” value was 7 out of the 10.
